According to paper PMC9736855, “Discovery of 3-Amino-1H-pyrazole-Based Kinase Inhibitors to Illuminate the Understudied PCTAIRE Family” (International Journal of Molecular Sciences, 2022):

How the values were obtained:
[1] = molecular target: T1, GAK (Homo sapiens, UniProt O14976); test: DSF; type: binding
T1 construct: purchased in-house DSF panel (SGC Frankfurt)
T1 sequence (O14976 14-351): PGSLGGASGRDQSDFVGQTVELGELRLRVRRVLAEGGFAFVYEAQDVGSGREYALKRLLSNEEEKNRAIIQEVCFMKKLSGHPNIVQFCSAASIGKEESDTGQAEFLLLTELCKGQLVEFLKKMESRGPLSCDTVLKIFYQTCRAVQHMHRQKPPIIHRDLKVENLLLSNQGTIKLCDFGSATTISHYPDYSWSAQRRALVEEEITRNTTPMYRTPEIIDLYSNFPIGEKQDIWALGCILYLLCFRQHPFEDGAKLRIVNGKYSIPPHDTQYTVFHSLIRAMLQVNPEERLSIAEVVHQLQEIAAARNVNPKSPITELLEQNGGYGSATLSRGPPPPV
Method: (§1) Recombinant protein kinase domains with a concentration of 2 μM were mixed with a 10 μM compound solution in DMSO, 20 mM HEPES, pH 7.5, and 500 mM NaCl. SYPRO Orange (5000×, Invitrogen) was added as a fluorescence probe (1 µl per mL). Subsequently, temperature-dependent protein unfolding profiles were measured, using the QuantStudio™ 5 realtime PCR machine (Thermo Fisher, Waltham, MA, USA). […] The temperature was raised with a step rate of 3 °C per minute. Data points were analyzed with the internal software (Thermal Shift SoftwareTM Version 1.4, Thermo Fisher) using the Boltzmann equation to determine the inflection point of the transition curve. Differences in melting temperature are given as ΔTm values in °C. Measurements were performed in duplicates.

[2] = molecular target: T2, ABL1 (Homo sapiens, UniProt P00519); test: DSF; type: binding
T2 construct: purchased in-house DSF panel (SGC Frankfurt)
T2 sequence (P00519 229-500): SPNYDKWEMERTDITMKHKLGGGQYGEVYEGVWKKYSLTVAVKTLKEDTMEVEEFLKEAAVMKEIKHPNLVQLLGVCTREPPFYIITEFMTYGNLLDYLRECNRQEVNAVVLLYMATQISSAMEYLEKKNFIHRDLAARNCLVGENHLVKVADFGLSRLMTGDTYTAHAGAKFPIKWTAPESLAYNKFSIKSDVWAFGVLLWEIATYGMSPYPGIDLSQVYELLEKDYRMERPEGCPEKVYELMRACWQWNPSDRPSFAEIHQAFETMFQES
Method: as §1

[3] = molecular target: T3, CASK (Homo sapiens, UniProt O14936); test: DSF; type: binding
T3 construct: purchased in-house DSF panel (SGC Frankfurt)
T3 sequence (O14936 1-337): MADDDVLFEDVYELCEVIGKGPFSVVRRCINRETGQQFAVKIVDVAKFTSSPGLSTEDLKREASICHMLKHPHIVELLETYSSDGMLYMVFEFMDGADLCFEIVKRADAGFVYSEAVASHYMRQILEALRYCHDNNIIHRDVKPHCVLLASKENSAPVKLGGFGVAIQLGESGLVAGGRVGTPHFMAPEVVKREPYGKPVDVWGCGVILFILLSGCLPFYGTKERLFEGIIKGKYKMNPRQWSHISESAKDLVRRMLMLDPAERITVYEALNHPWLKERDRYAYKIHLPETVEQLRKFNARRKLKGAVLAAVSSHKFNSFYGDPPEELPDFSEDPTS
Method: as §1

[4] = molecular target: T4, MAPK1 (Homo sapiens, UniProt P28482); test: DSF; type: binding
T4 construct: purchased in-house DSF panel (SGC Frankfurt)
T4 sequence (P28482 whole entry): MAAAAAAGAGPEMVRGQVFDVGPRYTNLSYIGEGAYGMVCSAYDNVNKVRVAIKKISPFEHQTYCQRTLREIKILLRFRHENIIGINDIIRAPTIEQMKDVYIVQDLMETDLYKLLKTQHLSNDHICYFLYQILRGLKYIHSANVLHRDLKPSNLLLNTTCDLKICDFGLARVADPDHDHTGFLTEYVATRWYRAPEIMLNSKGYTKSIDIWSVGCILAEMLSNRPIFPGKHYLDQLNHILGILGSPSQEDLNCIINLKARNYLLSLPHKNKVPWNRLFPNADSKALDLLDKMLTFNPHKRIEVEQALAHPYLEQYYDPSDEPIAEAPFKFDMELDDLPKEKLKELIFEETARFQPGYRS
Method: as §1

[5] = molecular target: T5, BMX (Homo sapiens, UniProt P51813); test: DSF; type: binding
T5 construct: purchased in-house DSF panel (SGC Frankfurt)
T5 sequence (P51813 411-675): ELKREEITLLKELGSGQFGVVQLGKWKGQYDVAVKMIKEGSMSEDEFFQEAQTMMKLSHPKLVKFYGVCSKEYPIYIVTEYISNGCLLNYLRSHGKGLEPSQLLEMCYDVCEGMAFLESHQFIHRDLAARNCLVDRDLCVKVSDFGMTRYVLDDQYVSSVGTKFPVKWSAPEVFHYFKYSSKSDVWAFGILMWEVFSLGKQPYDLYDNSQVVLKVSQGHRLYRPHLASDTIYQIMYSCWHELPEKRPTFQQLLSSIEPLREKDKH
Method: as §1

[6] = molecular target: T6, STK17A (Homo sapiens, UniProt Q9UEE5); test: DSF; type: binding
T6 construct: purchased in-house DSF panel (SGC Frankfurt)
T6 sequence (Q9UEE5 61-321): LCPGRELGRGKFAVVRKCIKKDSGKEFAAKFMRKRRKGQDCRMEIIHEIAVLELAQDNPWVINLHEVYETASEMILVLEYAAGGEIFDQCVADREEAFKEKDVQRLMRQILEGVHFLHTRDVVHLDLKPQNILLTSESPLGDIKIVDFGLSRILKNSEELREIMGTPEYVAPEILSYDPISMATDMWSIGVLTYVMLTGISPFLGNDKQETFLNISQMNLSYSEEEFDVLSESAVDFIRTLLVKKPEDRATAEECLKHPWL
Method: (§3) Recombinant protein kinase domains with a concentration of 2 μM were mixed with a 10 μM compound solution in DMSO, 20 mM HEPES, pH 7.5, and 500 mM NaCl. SYPRO Orange (5000×, Invitrogen) was added as a fluorescence probe (1 µl per mL). Subsequently, temperature-dependent protein unfolding profiles were measured, using the QuantStudio™ 5 realtime PCR machine (Thermo Fisher, Waltham, MA, USA). […] The temperature was raised with a step rate of 3 °C per minute. Data points were analyzed with the internal software (Thermal Shift SoftwareTM Version 1.4, Thermo Fisher) using the Boltzmann equation to determine the inflection point of the transition curve [56]. Differences in melting temperature are given as ΔTm values in °C. Measurements were performed in duplicates.

[7] = molecular target: T7, MST4 (Homo sapiens, UniProt Q9P289); test: DSF; type: binding
T7 construct: purchased in-house DSF panel (SGC Frankfurt)
T7 sequence (Q9P289 1-300): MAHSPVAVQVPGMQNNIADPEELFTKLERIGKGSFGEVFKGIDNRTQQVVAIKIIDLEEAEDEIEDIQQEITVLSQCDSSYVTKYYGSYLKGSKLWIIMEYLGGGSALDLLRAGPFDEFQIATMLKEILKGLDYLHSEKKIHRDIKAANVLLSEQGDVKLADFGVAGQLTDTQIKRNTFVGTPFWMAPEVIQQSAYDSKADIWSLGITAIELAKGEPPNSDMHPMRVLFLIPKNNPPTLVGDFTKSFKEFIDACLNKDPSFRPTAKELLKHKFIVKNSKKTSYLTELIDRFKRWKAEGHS
Method: as §3

[8] = molecular target: T8, BRAF (Homo sapiens, UniProt P15056); test: DSF; type: binding
T8 construct: purchased in-house DSF panel (SGC Frankfurt)
T8 sequence (P15056 444-723): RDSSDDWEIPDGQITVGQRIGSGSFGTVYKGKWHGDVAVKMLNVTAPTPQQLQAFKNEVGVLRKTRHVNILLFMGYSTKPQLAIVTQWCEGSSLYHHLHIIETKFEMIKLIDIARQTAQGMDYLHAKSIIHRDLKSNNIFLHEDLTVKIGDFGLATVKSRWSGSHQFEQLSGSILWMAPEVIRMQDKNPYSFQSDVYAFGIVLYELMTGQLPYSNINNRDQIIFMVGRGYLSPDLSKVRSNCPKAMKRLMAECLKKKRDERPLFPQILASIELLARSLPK
Method: as §3

[9] = molecular target: CDK17/Cyclin Y (Homo sapiens, UniProt Q00537); test: NanoBRET; type: cell-based; details: read-out: NanoBRET EC50 ± SEM CDK17/Cyclin Y
Sequence of CDK17/Cyclin Y (Q00537 whole entry, the tested form may be a part): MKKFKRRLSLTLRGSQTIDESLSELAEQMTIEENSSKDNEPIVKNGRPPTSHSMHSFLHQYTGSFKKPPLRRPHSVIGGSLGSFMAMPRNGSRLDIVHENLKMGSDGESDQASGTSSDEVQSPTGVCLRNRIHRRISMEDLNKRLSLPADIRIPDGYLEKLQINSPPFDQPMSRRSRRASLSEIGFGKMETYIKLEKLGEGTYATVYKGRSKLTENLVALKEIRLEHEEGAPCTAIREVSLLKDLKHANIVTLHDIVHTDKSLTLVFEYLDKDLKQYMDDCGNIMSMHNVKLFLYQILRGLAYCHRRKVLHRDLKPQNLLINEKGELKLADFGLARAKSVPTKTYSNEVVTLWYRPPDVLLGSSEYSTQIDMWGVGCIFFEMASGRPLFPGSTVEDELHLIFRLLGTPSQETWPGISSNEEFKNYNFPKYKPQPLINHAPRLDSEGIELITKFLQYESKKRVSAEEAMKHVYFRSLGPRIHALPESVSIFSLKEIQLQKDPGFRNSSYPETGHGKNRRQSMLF
Sequence of CDK17/Cyclin Y (Q8ND76 2-341 partner limits assumed): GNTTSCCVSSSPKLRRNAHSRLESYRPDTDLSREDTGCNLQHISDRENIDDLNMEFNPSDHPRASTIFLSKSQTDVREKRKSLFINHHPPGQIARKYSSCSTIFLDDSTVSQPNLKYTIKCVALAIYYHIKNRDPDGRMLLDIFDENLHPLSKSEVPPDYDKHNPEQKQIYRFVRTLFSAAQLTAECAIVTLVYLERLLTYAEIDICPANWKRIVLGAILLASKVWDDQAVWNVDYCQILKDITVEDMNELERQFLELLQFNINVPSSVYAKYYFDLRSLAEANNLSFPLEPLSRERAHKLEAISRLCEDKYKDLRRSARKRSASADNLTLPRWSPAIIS
Method: (§2) The assay was performed as described previously. In brief: Full-length kinases were obtained as plasmids cloned in frame with a terminal NanoLuc-fusion (Promega, Madison, WI, USA), as specified in table (Table S6). Plasmids were transfected into HEK293T cells using FuGENE HD (Promega, E2312) and proteins were allowed to express for 20h. Serially diluted inhibitor and NanoBRET Kinase Tracer (Promega) at a concentration determined previously as the KD,app (Table S5) were pipetted into white 384-well plates (Greiner 781207) using an Echo acoustic dispenser (Labcyte, San Jose, CA, USA). The corresponding protein-transfected cells were added and reseeded at a density of 2.5 × 10^5 cells/mL after trypsinization and resuspending in Opti-MEM without phenol red (Life Technologies, Carlsbad, CA, USA). The system was allowed to equilibrate for 2 h at 37 °C/5% CO2 prior to BRET measurements. To measure BRET, NanoBRET NanoGlo Substrate + Extracellular NanoLuc Inhibitor (Promega, N2540) was added as per the manufacturer’s protocol, and filtered luminescence was measured on a PHERAstar plate reader (BMG Labtech, Ortenberg, Germany) equipped with a luminescence filter pair (450 nm BP filter (donor) and 610 nm LP filter (acceptor)). Competitive displacement data were then graphed using GraphPad Prism 9 software using a normalized 3-parameter curve fit with the following equation: Y = 100/(1 + 10^(X–LogEC50)).

[10] = molecular target: T9, CDK4/Cyclin D1 (Homo sapiens, UniProt P11802); test: NanoBRET; type: cell-based; details: read-out: NanoBRET EC50 ± SEM CDK4/Cyclin D1
T9 construct: Full-length kinases were obtained as plasmids cloned in frame with a terminal NanoLuc-fusion; CS1810C118 (CCND1); host or cells: HEK293T
T9 sequence (P11802 whole entry, the tested form may be a part): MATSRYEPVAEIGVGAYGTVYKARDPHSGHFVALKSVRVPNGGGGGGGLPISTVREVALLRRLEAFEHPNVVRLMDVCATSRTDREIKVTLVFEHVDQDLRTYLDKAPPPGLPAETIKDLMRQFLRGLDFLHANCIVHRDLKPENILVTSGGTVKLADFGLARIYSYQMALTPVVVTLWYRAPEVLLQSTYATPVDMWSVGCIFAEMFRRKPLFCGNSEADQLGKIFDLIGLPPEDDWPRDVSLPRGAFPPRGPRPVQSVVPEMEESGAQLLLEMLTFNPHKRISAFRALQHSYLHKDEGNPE
T9 sequence (P24385 whole entry partner, the tested form may be a part): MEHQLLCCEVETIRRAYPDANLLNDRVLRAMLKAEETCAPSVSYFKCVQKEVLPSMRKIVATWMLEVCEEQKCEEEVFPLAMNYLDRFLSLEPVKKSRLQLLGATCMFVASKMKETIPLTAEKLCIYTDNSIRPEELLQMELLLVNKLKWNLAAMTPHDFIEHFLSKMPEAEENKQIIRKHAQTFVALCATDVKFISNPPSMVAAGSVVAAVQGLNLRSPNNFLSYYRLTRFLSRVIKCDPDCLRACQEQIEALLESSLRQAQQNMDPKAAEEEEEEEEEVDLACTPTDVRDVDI
Method: as §2

[11] = molecular target: T10, CDK2/Cyclin D1 (Homo sapiens, UniProt P24941); test: NanoBRET; type: cell-based; details: read-out: NanoBRET EC50 ± SEM CDK2/Cyclin D1
T10 construct: Full-length kinases were obtained as plasmids cloned in frame with a terminal NanoLuc-fusion; CS1810C118 (CCND1); host or cells: HEK293T
Method: as §2

[12] = molecular target: T11, MAP2K1 (Homo sapiens, UniProt Q02750); test: DSF; type: binding
T11 construct: purchased in-house DSF panel (SGC Frankfurt)
T11 sequence (Q02750 68-361): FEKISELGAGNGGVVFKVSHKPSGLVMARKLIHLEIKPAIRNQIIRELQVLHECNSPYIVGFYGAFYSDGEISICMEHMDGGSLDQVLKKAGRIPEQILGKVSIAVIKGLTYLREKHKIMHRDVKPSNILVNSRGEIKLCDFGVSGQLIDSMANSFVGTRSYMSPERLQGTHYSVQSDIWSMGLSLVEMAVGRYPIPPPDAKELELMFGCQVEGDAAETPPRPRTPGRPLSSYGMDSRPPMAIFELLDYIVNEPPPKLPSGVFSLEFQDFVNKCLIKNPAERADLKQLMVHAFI
Method: as §3

Compound	ΔTm GAK [1]	ΔTm ABL1 [2]	ΔTm CASK [3]	ΔTm MAPK1 [4]	ΔTm BMX [5]	ΔTm STK17A [6]	ΔTm MST4 [7]	ΔTm BRAF [8]	EC50 [9]	EC50 [10]	EC50 [11]	ΔTm MAP2K1 [12]
CC(C)OC(=O)c1cc(Nc2ccnc(NCc3ccc(NC(=O)OC(C)(C)C)cc3)n2)n[nH]1 [42d, isopropyl 3-((2-((4-((tert-butoxycarbonyl)amino)benzyl)amino)pyrimidin-4-yl)amino)-1H-pyrazole-5-carboxylate]	-0.9 °C	1.0 °C	0.4 °C	-0.1 °C	-0.1 °C	-0.4 °C	0.1 °C	0.4 °C	33.7 ± 2.5 nM	1600 ± 409 nM	4.86 ± 2.39 µM	
CC(C)(C)OC(=O)Nc1ccc(CNc2nccc(Nc3cc(C(=O)OC(C)(C)C)[nH]n3)n2)cc1 [43d, tert-butyl 3-((2-((4-((tert-butoxycarbonyl)amino)benzyl)amino)pyrimidin-4-yl)amino)-1H-pyrazole-5-carboxylate]	-4.1 °C	1.6 °C	0.4 °C	0.0 °C	-0.4 °C	-0.6 °C	-0.1 °C	0.7 °C	21.2 nM	2140 ± 750 nM	3.07 ± 1.86 µM	
COC(=O)c1cc(Nc2ccnc(NCCOCCNC(=O)OC(C)(C)C)n2)[nH]n1 [21d, methyl 5-((2-((2-(2-((tert-butoxycarbonyl)amino)ethoxy)ethyl)amino)pyrimidin-4-yl)amino)-1H-pyrazole-3-carboxylate]	2.1 °C	1.2 °C	0.4 °C	0.3 °C	0.2 °C	2.2 °C	0.7 °C	0.9 °C				0.7 °C
N#CCc1ccc(Nc2nccc(Nc3cc(C4CC4)[nH]n3)n2)cc1 [compound 1, reference compound]	8.0 °C	8.7 °C	2.0 °C	8.5 °C	4.4 °C	9.6 °C	7.1 °C	4.6 °C	9.9 ± 1.2 nM	93.6 ± 23.6 nM	0.0386 ± 0.0173 µM	1.4 °C
COC(=O)c1cc(Nc2ccnc(NCc3ccc(NC(=O)OC(C)(C)C)cc3)n2)[nH]n1 [21i, methyl 5-((2-((4-((tert-butoxycarbonyl)amino)benzyl)amino)pyrimidin-4-yl)amino)-1H-pyrazole-3-carboxylate]	1.3 °C	0.7 °C	0.2 °C	0.7 °C	-0.1 °C	-0.1 °C	-0.7 °C	1.0 °C	673 nM	10900 ± 3920 nM	33.5 ± 1.52 µM	-0.5 °C
